Reference: publication PMC11302339, “A series of pyrimidine-based antifungals with anti-mold activity disrupt ER function in Aspergillus fumigatus” (Microbiology Spectrum, 2024)
Values after ≈ are worked out from the molar mass of the structure shown.

Tests used:
C. neoformans = experiment: MIC testing (CLSI broth dilution); type: cell-based; conditions: Cryptococcus neoformans, 72 h, strain H99; CLSI conditions
Description: (§1) MICs were determined using Clinical and Laboratory Standards Institute guidelines ([48], [49]). All yeasts were cultured overnight in 3 mL YPD at 30°C, then washed twice in sterile phosphate-buffered saline (PBS). Twofold serial dilutions of each drug were prepared in RMPI + MOPS, then 1 × 10^3 cells were added per well. For mold species, wells were inoculated with 1.25 × 10^3 conidia per well. Plates were incubated at 37°C for 24 (Candida spp. and S. cerevisiae), 48 (Aspergillus spp., M. circinelloides, S. apiospermum, and L. prolificans), or 72 (C. neoformans and F. oxysporum) hours. S. cerevisiae BY4743 MICs were tested in YPD due to nutritional requirements of this strain. Each assay was performed in technical duplicate in at least two independent experiments performed on different days.

A. fumigatus = experiment: MIC testing (CLSI broth dilution); type: cell-based; conditions: Aspergillus fumigatus, 48 h, strain CEA10; CLSI conditions, 48 h; read-out: MIC
Description: as §1

[1] = tested on: A. fumigatus collagenase secretion; experiment: Detection of secreted collagenase by azocoll; type: cell-based, Aspergillus fumigatus; conditions: treated with 1/2 MIC of each compound
Description: 1 × 10^6 CEA10 conidia/mL were cultured in 25 mL liquid GMM for 18 hours, then mycelia were washed with sterile ddH2O and transferred to 10% FBS-MM and treated with DMSO or the indicated concentration of drugs. Cultures were incubated at 37°C, 250 rpm, for an additional 24 hours, then the supernatant and biomass were collected. One milliliter of supernatant was spun at top speed for 5 min. Azocoll of <50 mesh (Sigma, Cat # 194932) was washed in buffer (50 mM Tris, pH 7.5, 1 mM NaCl, and 0.01% sodium azide) then resuspended to 5 mg/mL. Fifteen microliters of culture supernatant was added to the 2 mL azocoll solution and incubated at 37°C with shaking at 300 rpm for 3 hours in the dark. Reactions were spun at maximum speed for 3 min; 200 µL of supernatant was then transferred to a 96-well plate; and Abs 520 was measured. Biomass was lyophilized, and absorbance readings were normalized to milligram tissue. Data represent the mean and SEM of biological triplicates with technical duplicates except for compounds 5 and 7, which are biological duplicates due to the limited availability of the drug and the required culture size for this assay.

[2] = tested on: A. fumigatus UPR-responsive genes; experiment: A. fumigatus UPR gene expression (qRT-PCR); type: cell-based, Aspergillus fumigatus; conditions: single agent (16 µg/mL 1, or 1 mM DTT for 1 hour); normalized to DMSO
Description: We cultured 5 × 10^6 CEA10 conidia/mL in liquid GMM for 18 hours at 37°C with shaking at 250 rpm. Cultures were treated with either DMSO or 16 µg/mL 1 for 2 hours at 37°C, 250 rpm. Then 1 mM DTT or water was added, and cultures were incubated for an additional hour. Mycelia were collected with vacuum filtration and immediately frozen with liquid nitrogen. Tissue was lyophilized then ground with glass beads with a bead beater. RNA was extracted in 1 mL of TRIazole solution (Life Technologies, Cat # 15596026), then RNA was purified with two rounds of chloroform extraction. Five micrograms of RNA was treated with TURBO DNA-free kit (Invitrogen, Cat # AM1907) according to the manufacturer’s protocol. Five hundred nanograms of DNAse-treated RNA was used for cDNA synthesis with iScript cDNA synthesis kit (BioRad, Cat # 1708891), then cDNA was diluted 1:5 with ddH2O. Quantitative real time PCR analysis was performed in 20 µL reactions using 2 µL of dilute cDNA per reaction with iQ SYBR Green Supermix (BioRad). Samples were run on a BioRad CFX Connect using a three-step amplification with 54°C annealing temperature and melt curve analysis. Gene expression is normalized to tubA and tef1 expression. Gene expression was performed in biological triplicate. Primers to detect HacA splicing and targets were designed as previously described ([51]).

A. fumigatus biofilms = experiment: A. fumigatus hyphal (biofilm) activity, resazurin; type: cell-based, Aspergillus fumigatus; conditions: conidia germinated 14 hours, escalating doses 24 hours
Description: To determine antifungal activity against A. fumigatus hyphae, a 96-well plate was inoculated with 1 × 10^3 conidia per well in 100 µL RPMI + MOPS with the edge wells filled with 200 µL sterile water to minimize edge effects. Plates were incubated at 37°C for 14 hours. A twofold dilution series of 1 or 7 was prepared in RPMI + MOPS at 2× concentration with 0.002% resazurin, then 100 µL of the drug was added to wells, and plates were incubated for an additional 24 hours. Fluorescence was measured with an excitation wavelength of 570 nm and an emission wavelength of 615 nm. Data are representative of two independent experiments performed in biological triplicate.

Row | Structure (SMILES) | MIC (C. neoformans) [µg/mL] | MIC (A. fumigatus) [µg/mL] | collagenase secretion [1] | increase in BipA expression [2] [fold] | increase in PdiA expression [2] [fold] | increase of spliced HacA (HacA^A) [2] | inhibition of hyphal growth (A. fumigatus biofilms)
1 | OC1CC(c2cc(N3CCC(Cc4ccc(F)cc4)CC3)ncn2)C1 (centres unmarked) [compound 3] | 4 (≈ 11.7 µM) | 64 (≈ 187 µM) | inhibition of collagenase secretion was similar |  |  |  | 
2 | O[C@@H](CS)[C@@H](O)CS (racemic) [DTT, 1,4-dithiothreitol, reference compound] |  |  |  | 5 | 2 | ~ 1.5 fold | 
3 | OC1CC(c2cc(N3CCC(CCN4CCCC4)CC3)ncn2)C1 (centres unmarked) [compound 4] | 128 (≈ 387 µM) | > 128 |  |  |  |  | 
4 | COC1CCN(c2cc(C3CC(O)C3)ncn2)CC1 (centres unmarked) [compound 6] | > 128 | > 128 |  |  |  |  | 
5 | OC1CC(c2cc(NCC3CCN(CCc4ccccc4)CC3)ncn2)C1 (centres unmarked) [compound 7] | > 128 | > 128 | modest but insignificant effect |  |  |  | did not show inhibitory activity
